Source: patent US11986471B2, “Compounds and methods of use” (Tango Therapeutics, Inc., priority 2018, dated 2024)

What was measured:
Assay type in all cases: biochemical
[1] = molecular target: T1, PRMT5 (Homo sapiens, UniProt O14744); experiment: PRMT5 IC50 assay with no cofactor
T1 construct: purchased Viva (custom protein)
Description: (§1) Table 1a indicates IC50 values (μM) against PRMT5 for exemplary compounds in the presence of SAM as cofactor, with no cofactor and with MTA as cofactor, respectively (columns 3-5). […] The Ki values can be calculated from the IC50 values as described in the Examples section. As detailed in the Examples section, for the assay performed in the presence of SAM, IC50=Ki×1.5 (Ki=IC50/1.5). For the assay performed in the presence of MTA, IC50=Ki×13.5 (Ki=IC50/13.5). Column 6 indicates the ratio between the Ki of compounds in the presence of SAM and the Ki of compounds in the presence of MTA

[2] = molecular target: T1, PRMT5; experiment: PRMT5 IC50 assay in the presence of SAM as cofactor
Description: as §1

[3] = molecular target: T1, PRMT5; experiment: PRMT5 IC50 assay in the presence of MTA as cofactor; conditions: for IC50: PRMT5, MTA as cofactor; for SAM/MTA Ratio: ratio between the Ki in the presence of SAM and the Ki in the presence of MTA
Description: as §1

T1 sequence (O14744 whole entry): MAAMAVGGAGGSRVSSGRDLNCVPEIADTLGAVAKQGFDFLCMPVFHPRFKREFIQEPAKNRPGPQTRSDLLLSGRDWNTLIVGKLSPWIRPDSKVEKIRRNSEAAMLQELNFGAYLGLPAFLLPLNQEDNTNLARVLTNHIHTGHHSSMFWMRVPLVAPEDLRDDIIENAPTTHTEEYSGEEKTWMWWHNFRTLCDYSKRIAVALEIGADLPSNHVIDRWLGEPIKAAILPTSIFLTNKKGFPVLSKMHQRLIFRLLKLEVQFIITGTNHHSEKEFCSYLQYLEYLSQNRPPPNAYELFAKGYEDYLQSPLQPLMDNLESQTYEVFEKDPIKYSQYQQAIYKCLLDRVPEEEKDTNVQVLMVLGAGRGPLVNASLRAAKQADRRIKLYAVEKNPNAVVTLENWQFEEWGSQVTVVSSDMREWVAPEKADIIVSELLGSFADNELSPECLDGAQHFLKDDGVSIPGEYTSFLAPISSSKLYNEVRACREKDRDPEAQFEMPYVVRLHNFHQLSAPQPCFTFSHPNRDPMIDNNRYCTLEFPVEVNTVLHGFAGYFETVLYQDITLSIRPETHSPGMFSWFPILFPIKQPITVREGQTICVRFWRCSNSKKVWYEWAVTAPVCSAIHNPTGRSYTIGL
T1 sequence (Q9BQA1 whole entry partner): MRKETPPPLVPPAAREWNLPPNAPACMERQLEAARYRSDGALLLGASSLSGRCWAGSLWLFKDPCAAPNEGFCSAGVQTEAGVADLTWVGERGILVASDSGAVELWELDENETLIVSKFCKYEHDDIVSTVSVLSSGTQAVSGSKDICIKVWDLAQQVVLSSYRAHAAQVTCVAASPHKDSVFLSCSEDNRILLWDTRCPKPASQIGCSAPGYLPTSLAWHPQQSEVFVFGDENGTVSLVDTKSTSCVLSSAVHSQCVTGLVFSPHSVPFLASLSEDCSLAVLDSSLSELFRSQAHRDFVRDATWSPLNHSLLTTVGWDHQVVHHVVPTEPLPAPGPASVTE

Compound | IC50 [1] | IC50 [2] | IC50 [3] | SAM/MTA Ratio [3]
O=C(NC[C@H](O)CN1CCc2cc(OCc3cnco3)ccc2C1)c1cc(NC2CCOCC2)ccn1 [Compound 511, (S)—N-(2-hydroxy-3-(6-(oxazol-5-ylmethoxy)-3,4-dihydroisoquinolin-2(1H)-yl)propyl)-4-((tetrahydro-2H-pyran-4-yl)amino)picolinamide] | ≥ 5 µM | 500 to 5000 nM | 500 to 5000 nM | A (a Ki ratio greater than or equal to 10 fold between the Ki in the presence of SAM and the Ki in the presence of MTA)
Cc1c(OCc2cnco2)ccc2c1CCN(C[C@@H](O)CNC(=O)c1ccnc(NC34CC(C3)C4)c1)C2 [Compound 514, (S)-2-(bicyclo[1.1.1]pentan-1-ylamino)-N-(2-hydroxy-3-(5-methyl-6-(oxazol-5-ylmethoxy)-3N-dihydroisoquinolin-2(1H)-yl)propyl)isonicotinamide] | ≥ 5 µM | 500 to 5000 nM | 500 to 5000 nM | A (a Ki ratio greater than or equal to 10 fold between the Ki in the presence of SAM and the Ki in the presence of MTA)
COCC(=O)N1CC(Nc2cc(C(=O)NC[C@H](O)CN3CCc4c(ccc(OCc5cnco5)c4C)C3)ncn2)C1 [Compound 518, N-[(2S)-2-hydroxy-3-{5-methyl-6-[(1,3-oxazol-5-yl)methoxy]-1,2,3,4-tetrahydroisoquinolin-2-yl}propyl]-6-{[1-(2-methoxyacetyl)azetidin-3-yl]amino}pyrimidine-4-carboxamide] | ≥ 5 µM | 500 to 5000 nM | 500 to 5000 nM | A (a Ki ratio greater than or equal to 10 fold between the Ki in the presence of SAM and the Ki in the presence of MTA)
Cc1c(OCc2cnco2)ccc2c1CCN(C[C@@H](O)CNC(=O)c1cc(N[C@H]3C[C@H](C(=O)N4CCC4)C3)ncn1)C2 [Compound 519, N-[(2S)-2-hydroxy-3-{5-methyl-6-[(1,3-oxazol-5-yl)methoxy]-1,2,3,4-tetrahydroisoquinolin-2-yl}propyl]-6-{[(1r,3r)-3-(azetidine-1-carbonyl)cyclobutyl]amino}pyrimidine-4-carboxamide] | ≥ 5 µM | 500 to 5000 nM | 500 to 5000 nM | A (a Ki ratio greater than or equal to 10 fold between the Ki in the presence of SAM and the Ki in the presence of MTA)
Cc1c(OCc2ccnn2C)ccc2c1CCN(C[C@@H](O)CNC(=O)c1cc(NC3CCC3)ccn1)C2 [Compound 521, (S)-4-(cyclobutylamino)-N-(2-hydroxy-3-(5-methyl-6-((1-methyl-1H-pyrazol-5-yl)methoxy)-3N-dihydroisoquinolin-2(1H)-yl)propyl)picolinamide] | ≥ 5 µM | 500 to 5000 nM | 500 to 5000 nM | A (a Ki ratio greater than or equal to 10 fold between the Ki in the presence of SAM and the Ki in the presence of MTA)
CNC(=O)CN1CCC(Nc2cc(C(=O)NC[C@H](O)CN3CCc4c(ccc(OCc5cnco5)c4C)C3)ncn2)CC1 [Compound 524, N-[(2S)-2-hydroxy-3-{5-methyl-6-[(1,3-oxazol-5-yl)methoxy]-1,2,3,4-tetrahydroisoquinolin-2-yl}propyl]-6-{[1-[(methylcarbamoyl)methyl]piperidin-4-yl}amino)pyrimidine-4-carboxamide] | ≥ 5 µM | 500 to 5000 nM | 500 to 5000 nM | A (a Ki ratio greater than or equal to 10 fold between the Ki in the presence of SAM and the Ki in the presence of MTA)
CC(=O)N1CCC(Nc2cccc(C(=O)NC[C@H](O)CN3CCc4c(ccc(OCc5cnco5)c4C)C3)c2)C1 (stereo partly drawn) [Compound 525, 3-[(1-acetylpyrrolidin-3-yl)amino]-N-[(2S)-2-hydroxy-3-{5-methyl-6-[(1,3-oxazol-5-yl)methoxy]-1,2,3,4-tetrahydroisoquinolin-2-yl}propyl]benzamide] | ≥ 5 µM | 500 to 5000 nM | 500 to 5000 nM | A (a Ki ratio greater than or equal to 10 fold between the Ki in the presence of SAM and the Ki in the presence of MTA)
Cc1c(OCc2cnco2)ccc2c1CCN(C[C@@H](O)CNC(=O)c1cc(N[C@H]3C[C@H](C(=O)N4CCCCC4)C3)ncn1)C2 [Compound 526] | ≥ 5 µM | 500 to 5000 nM | 50 to 500 nM | A (a Ki ratio greater than or equal to 10 fold between the Ki in the presence of SAM and the Ki in the presence of MTA)
Cc1c(OCc2cnco2)ccc2c1CCN(C[C@@H](O)CNC(=O)c1ccnc(Nc3cccnc3)c1)C2 [Compound 531, N-[(2S)-2-hydroxy-3-{5-methyl-6-[(1,3-oxazol-5-yl)methoxy]-1,2,3,4-tetrahydroisoquinolin-2-yl}propyl]-2-[(pyridin-3-yl)amino]pyridine-4-carboxamide] | ≥ 5 µM | 500 to 5000 nM | 500 to 5000 nM | A (a Ki ratio greater than or equal to 10 fold between the Ki in the presence of SAM and the Ki in the presence of MTA)
CO[C@H]1C[C@@H](Nc2cc(C(=O)NC[C@H](O)CN3CCc4c(ccc(OCc5cnco5)c4C)C3)ccn2)C1 [Compound 535] | ≥ 5 µM | 500 to 5000 nM | 50 to 500 nM | A (a Ki ratio greater than or equal to 10 fold between the Ki in the presence of SAM and the Ki in the presence of MTA)
Cc1c(OCc2cnco2)ccc2c1CCN(C[C@@H](O)CNC(=O)c1ccnc(N[C@H]3C[C@H](CO)C3)c1)C2 [Compound 537, N—((S)-2-hydroxy-3-(5-methyl-6-(oxazol-5-ylmethoxy)-3N-dihydroisoquinolin-2(1H)-yl)propyl)-2-(((1r,3S)-3-(hydroxymethyl)cyclobutyl)amino)isonicotinamide] | ≥ 5 µM | 500 to 5000 nM | 50 to 500 nM | A (a Ki ratio greater than or equal to 10 fold between the Ki in the presence of SAM and the Ki in the presence of MTA)
O=C(NC[C@H](O)CN1CCc2cc(OCc3cnco3)ccc2C1)c1cc(NC2CCC2)ncn1 [Compound 538, (S)-6-(cyclobutylamino)-N-(2-hydroxy-3-(6-(oxazol-5-ylmethoxy)-3,4-dihydroisoquinolin-2(1H)-yl)propyl)pyrimidine-4-carboxamide] | ≥ 5 µM | 500 to 5000 nM | 50 to 500 nM | A (a Ki ratio greater than or equal to 10 fold between the Ki in the presence of SAM and the Ki in the presence of MTA)
CO[C@H]1CC[C@@H](Nc2cc(C(=O)NC[C@H](O)CN3CCc4c(ccc(OCc5cnco5)c4C)C3)ncn2)CC1 [Compound 541, N-[(2S)-2-hydroxy-3-{5-methyl-6-[(1,3-oxazol-5-yl)methoxy]-1,2,3,4-tetrahydroisoquinolin-2-yl}propyl]-6-{[(1s,4s)-4-methoxycyclohexyl]amino}pyrimidine-4-carboxamide] | ≥ 5 µM | 500 to 5000 nM | 50 to 500 nM | A (a Ki ratio greater than or equal to 10 fold between the Ki in the presence of SAM and the Ki in the presence of MTA)

Further lines, with some results ahead:

IC50 [1] | IC50 [2] | IC50 [3] | Compound | SAM/MTA Ratio [3]
≥ 5 µM | 500 to 5000 nM | 50 to 500 nM | Cn1nccc1COc1ccc2c(c1)CCN(C[C@@H](O)CNC(=O)c1cc(NC3CCC3)ccn1)C2 [Compound 542, (S)-4-(cyclobutylamino)-N-(2-hydroxy-3-(6-((1-methyl-1H-pyrazol-5-yl)methoxy)-3N-dihydroisoquinolin-2(1H)-yl)propyl)picolinamide] | A (a Ki ratio greater than or equal to 10 fold between the Ki in the presence of SAM and the Ki in the presence of MTA)
≥ 5 µM | 500 to 5000 nM | 500 to 5000 nM | CC(=O)N1CC(Nc2cc(C(=O)NC[C@H](O)CN3CCc4c(ccc(OCc5cnco5)c4C)C3)ncn2)C1 [Compound 543, 6-[(1-acetylazetidin-3-yl)amino]-N-[(2S)-2-hydroxy-3-{5-methyl-6-[(1,3-oxazol-5-yl)methoxy]-1,2,3,4-tetrahydroisoquinolin-2-yl}propyl]pyrimidine-4-carboxamide] | A (a Ki ratio greater than or equal to 10 fold between the Ki in the presence of SAM and the Ki in the presence of MTA)
≥ 5 µM | 500 to 5000 nM | 500 to 5000 nM | Cc1c(OCc2cnco2)ccc2c1CCN(C[C@@H](O)CNC(=O)c1cccc(NC3CCOCC3)c1)C2 [Compound 548, N-[(2S)-2-hydroxy-3-{5-methyl-6-[(1,3-oxazol-5-yl)methoxy]-1,2,3,4-tetrahydroisoquinolin-2-yl}propyl]-3-[(oxan-4-yl)amino]benzamide] | A (a Ki ratio greater than or equal to 10 fold between the Ki in the presence of SAM and the Ki in the presence of MTA)
≥ 5 µM | 500 to 5000 nM | 500 to 5000 nM | Cc1c(OCc2cnco2)ccc2c1CCN(C[C@@H](O)CNC(=O)c1ccnc(N[C@H]3C[C@H](O)C3)c1)C2 [Compound 552, N—((S)-2-hydroxy-3-(5-methyl-6-(oxazol-5-ylmethoxy)-3,4-dihydroisoquinolin-2(1H)-yl)propyl)-2-(((1r,3S)-3-hydroxycyclobutyl)amino)isonicotinamide] | A (a Ki ratio greater than or equal to 10 fold between the Ki in the presence of SAM and the Ki in the presence of MTA)
≥ 5 µM | 500 to 5000 nM | 50 to 500 nM | CCCN(C)c1cc(C(=O)NC[C@H](O)CN2CCc3cc(OCc4ocnc4C)ccc3C2)cc(NC2CCC2)n1 [Compound 553, 2-(cyclobutylamino)-N-[(2S)-2-hydroxy-3-{6-[(4-methyl-1,3-oxazol-5-yl)methoxy]-1,2,3,4-tetrahydroisoquinolin-2-yl}propyl]-6-[methyl(propyl)amino]pyridine-4-carboxamide] | A (a Ki ratio greater than or equal to 10 fold between the Ki in the presence of SAM and the Ki in the presence of MTA)
